Experimental data from ChEMBL document CHEMBL2429856, “Benzazepinones and benzoxazepinones as antagonists of inhibitor of apoptosis proteins (IAPs) selective for the second baculovirus IAP repeat (BIR2) domain” (J Med Chem, 2013).
Each block holds one molecule with its values, some of them ahead of it.

Assays:
[1] = target: T1, E3 ubiquitin-protein ligase XIAP (Homo sapiens, UniProt P98170)
Plasma = assay: In vivo metabolic stability in rat plasma assessed as hydrolysis of the alanine amide at 4 mg/kg, iv; type: ADME, organism-based; set-up: dose 4 mg/kg, route intravenous
[2] = In vivo metabolic stability in rat urine assessed as hydrolysis of the alanine amide at 4 mg/kg, iv; type: ADME, organism-based; set-up: dose 4 mg/kg, route intravenous
[3] = Clearance in rat at 2 mg/kg, iv; type: ADME, organism-based; set-up: dose 2 mg/kg, route intravenous; settings: in vivo
[4] = Metabolic stability in rat blood assessed as compound remaining at 1 uM after 4 hrs by LC-MS/MS analysis; type: ADME, tissue-based; settings: read-out: Stability
[5] = target: T2, Baculoviral IAP repeat-containing protein 2 (Homo sapiens, UniProt Q13490); assay: Inhibition of His-thrombin-TEV-tagged cIAP1 BIR2 domain (174 to 256) (unknown origin) after 1 hr by TR-FRET assay
T2 sequence (Q13490 whole entry, the tested form may be a part): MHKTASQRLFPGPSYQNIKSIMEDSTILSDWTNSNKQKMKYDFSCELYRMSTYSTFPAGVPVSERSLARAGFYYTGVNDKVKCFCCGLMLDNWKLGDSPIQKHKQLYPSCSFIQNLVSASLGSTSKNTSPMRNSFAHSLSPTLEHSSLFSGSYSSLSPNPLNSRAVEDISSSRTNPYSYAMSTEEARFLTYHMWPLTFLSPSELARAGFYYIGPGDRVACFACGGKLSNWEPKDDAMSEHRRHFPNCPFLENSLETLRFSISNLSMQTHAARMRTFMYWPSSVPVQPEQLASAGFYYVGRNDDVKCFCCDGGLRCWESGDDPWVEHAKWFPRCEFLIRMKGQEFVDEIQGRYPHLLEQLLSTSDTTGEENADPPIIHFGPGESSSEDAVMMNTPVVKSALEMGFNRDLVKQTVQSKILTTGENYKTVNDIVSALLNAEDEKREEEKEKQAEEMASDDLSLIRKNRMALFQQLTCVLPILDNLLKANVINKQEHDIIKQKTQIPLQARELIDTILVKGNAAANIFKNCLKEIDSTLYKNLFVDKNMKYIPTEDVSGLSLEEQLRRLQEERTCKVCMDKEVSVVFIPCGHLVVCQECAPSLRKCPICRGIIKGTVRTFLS

Cytochrome P450 3A4 [6] = target: T3, Cytochrome P450 3A4 (Homo sapiens, UniProt P08684); assay: Time dependent inhibition of CYP3A4 (unknown origin); type: ADME
T3 sequence (P08684 whole entry): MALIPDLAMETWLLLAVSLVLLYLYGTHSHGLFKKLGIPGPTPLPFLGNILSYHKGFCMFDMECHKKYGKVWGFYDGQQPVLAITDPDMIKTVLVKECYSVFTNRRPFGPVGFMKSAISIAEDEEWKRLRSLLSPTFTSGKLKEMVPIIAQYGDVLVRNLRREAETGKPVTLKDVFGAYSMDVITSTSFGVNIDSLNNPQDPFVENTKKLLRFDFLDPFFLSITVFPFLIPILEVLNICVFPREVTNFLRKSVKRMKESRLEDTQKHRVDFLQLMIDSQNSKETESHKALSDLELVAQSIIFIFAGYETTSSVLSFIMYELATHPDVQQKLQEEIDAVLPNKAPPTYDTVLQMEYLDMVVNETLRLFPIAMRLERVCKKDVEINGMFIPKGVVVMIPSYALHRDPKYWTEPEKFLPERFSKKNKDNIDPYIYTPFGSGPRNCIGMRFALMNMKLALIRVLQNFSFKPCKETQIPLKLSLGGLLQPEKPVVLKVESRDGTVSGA

[7] = Half life in mouse at 1 mg/kg, iv; type: ADME, organism-based; set-up: dose 1 mg/kg, route intravenous; settings: in vivo
[8] = Half life in mouse at 10 mg/kg, po; type: ADME, organism-based; set-up: dose 10 mg/kg, route oral; settings: in vivo
Cytochrome P450 3A4 [9] = target: T3, Cytochrome P450 3A4; assay: Inhibition of CYP3A4 (unknown origin); type: ADME
[10] = AUC in mouse at 10 mg/kg, po; type: ADME, organism-based; set-up: dose 10 mg/kg, route oral; settings: plasma
Cytochrome P450 3A4 [11] = target: T3, Cytochrome P450 3A4; assay: Induction of CYP3A4 (unknown origin); type: ADME
[12] = Clearance in mouse at 1 mg/kg, iv; type: ADME, organism-based; set-up: dose 1 mg/kg, route intravenous; settings: in vivo
[13] = AUC in mouse at 1 mg/kg, iv; type: ADME, organism-based; set-up: dose 1 mg/kg, route intravenous; settings: plasma
[14] = Volume of distribution at steady state in mouse at 1 mg/kg, iv; type: ADME, organism-based; set-up: dose 1 mg/kg, route intravenous; settings: in vivo, read-out: Vdss
[15] = Cmax in mouse at 1 mg/kg, iv; type: ADME, organism-based; set-up: dose 1 mg/kg, route intravenous; settings: in vivo
[16] = Cmax in mouse at 10 mg/kg, po; type: ADME, organism-based; set-up: dose 10 mg/kg, route oral; settings: in vivo
[17] = Oral bioavailability in mouse at 10 mg/kg; type: ADME, organism-based; settings: in vivo
[18] = target: T2, Baculoviral IAP repeat-containing protein 2; assay: Inhibition of His-thrombin-TEV-tagged cIAP1 BIR3 domain (260 to 352) (unknown origin) after 1 hr by TR-FRET assay
Hepatocyte [19] = assay: Drug metabolism in human hepatocytes assessed as demethylation of methoxy group of naphthalene; type: ADME, cell-based
Hepatocyte [20] = assay: Drug metabolism in rat hepatocytes assessed as demethylation of N-methyl-L-alanine; type: ADME, cell-based
Hepatocyte [21] = assay: Drug metabolism in human hepatocytes assessed as demethylation of N-methyl-L-alanine; type: ADME, cell-based
Hepatocyte [22] = assay: Drug metabolism in rat hepatocytes assessed as demethylation of methoxy group of naphthalene; type: ADME, cell-based
[23] = target: T1, E3 ubiquitin-protein ligase XIAP; remark: listed apart in the source

T1 sequence (P98170 whole entry): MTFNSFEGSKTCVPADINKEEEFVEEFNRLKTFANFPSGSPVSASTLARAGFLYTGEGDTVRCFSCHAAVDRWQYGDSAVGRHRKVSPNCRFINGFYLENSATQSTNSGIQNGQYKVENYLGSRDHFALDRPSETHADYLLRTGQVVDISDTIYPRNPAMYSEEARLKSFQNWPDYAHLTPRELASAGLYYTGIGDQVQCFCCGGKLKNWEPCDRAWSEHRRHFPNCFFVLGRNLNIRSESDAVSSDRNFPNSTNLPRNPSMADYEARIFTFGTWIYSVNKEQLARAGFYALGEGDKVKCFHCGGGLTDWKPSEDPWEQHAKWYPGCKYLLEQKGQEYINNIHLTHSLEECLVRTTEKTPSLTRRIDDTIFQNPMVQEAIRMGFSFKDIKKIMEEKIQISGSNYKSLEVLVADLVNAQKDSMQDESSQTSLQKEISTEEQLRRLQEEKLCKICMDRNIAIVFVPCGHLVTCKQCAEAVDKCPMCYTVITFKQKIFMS

Compound: COc1ccc2cc(Br)ccc2c1CN1C(=O)[C@@H](NC(=O)[C@@H](N)[C@H](C)O)CCc2ccccc21
- IC50 [1]: > 54 µM

Compound: CN[C@@H](C)C(=O)N[C@H]1CCc2ccccc2N(Cc2c(OC)ccc3cc(Br)ccc23)C1=O.Cl
- Stability (Plasma): Unstable
- Stability [2]: Unstable
- clearance [3]: 116 mL/min/kg
- remaining at 4 h, 1 µM [4]: 40%
- IC50 [1]: > 54 µM

- IC50 [1]: > 54.8 µM
Compound: CN[C@@H](C)C(=O)N[C@@H]1C(=O)N(Cc2nn(-c3ccccc3C#N)c3ccccc23)c2ccccc2OC12CCOCC2

- remaining at 4 h, 1 µM [4]: 7%
Compound: CN[C@@H](C)C(=O)N[C@H]1COc2ccccc2N(Cc2c(OC)ccc3cc(Br)ccc23)C1=O

Compound: CCN[C@@H](C)C(=O)N[C@H]1CCc2ccccc2N(Cc2c(OC)ccc3cc(Br)ccc23)C1=O
- IC50 [1]: > 54 µM

- IC50 [5]: 0.271 µM
- inhibition (INH) (Cytochrome P450 3A4 [6]): Active
- half-life [7]: 6.9 h
- half-life [8]: 5 h
- inhibition (INH) (Cytochrome P450 3A4 [9]): Active
- AUC [10]: 2860 ng·h/mL
- Activity (Cytochrome P450 3A4 [11]): Active
- clearance [12]: 33 mL/min/kg
- AUC [13]: 543 ng·h/mL
- Vd [14]: 8.6 L/kg
- Cmax [15]: 495 ng/mL
- Cmax [16]: 647 ng/mL
- bioavailability [17]: 53%
- IC50 [18]: > 55 µM
Compound: CN[C@@H](C)C(=O)N[C@@H]1C(=O)N(Cc2c(C#N)n(-c3ccccc3C#N)c3ccccc23)c2ccccc2OC12CCOCC2.Cl

- Drug metabolism (Hepatocyte [19]): Active
- Drug metabolism (Hepatocyte [20]): Active
- remaining at 4 h, 1 µM [4]: 88%
- Drug metabolism (Hepatocyte [21]): Active
- Drug metabolism (Hepatocyte [22]): Active
Compound: CN[C@@H](C)C(=O)N[C@@H]1C(=O)N(Cc2c(OC)ccc3cc(Br)ccc23)c2ccccc2OC12CCOCC2.Cl

Compound: CN[C@@H](C)C(=O)N[C@H]1CCc2ccccc2N(CCc2ccccc2)C1=O
- IC50 [1]: > 54 µM

Compound: CN[C@@H](C)C(=O)N[C@H]1CCc2ccccc2N(Cc2ccccc2)C1=O
- IC50 [1]: > 54 µM

Compound: CN[C@@H](C)C(=O)N[C@H]1CCc2ccccc2N(Cc2c(OC)ccc3ccccc23)C1=O
- IC50 [1]: > 54 µM

- IC50 [23]: 14.4 µM
- IC50 [1]: > 54.2 µM
Compound: C[C@H](N)C(=O)N[C@@H]1C(=O)N(C)CCc2ccccc21

Compound: CN[C@@H](C)C(=O)N[C@H]1CCc2ccccc2N(Cc2cccc3ccccc23)C1=O
- IC50 [1]: > 54 µM

Compound: CN[C@@H](C)C(=O)N[C@H]1CCc2ccccc2N(Cc2ccc(C)c3ccccc23)C1=O
- IC50 [1]: > 54 µM

Compound: CN[C@@H](C)C(=O)N[C@H]1CCc2ccccc2N(Cc2ccc3ccccc3c2)C1=O
- IC50 [1]: > 54 µM

Compound: CN[C@H](C)C(=O)N[C@H]1CCc2ccccc2N(Cc2c(OC)ccc3cc(Br)ccc23)C1=O
- IC50 [1]: > 54 µM

Compound: CN[C@@H](C)C(=O)N[C@H]1CCc2ccccc2N(Cc2c(C)ccc3ccccc23)C1=O
- IC50 [1]: > 54 µM
